The target of one assay is ALDH1A3 (Homo sapiens, UniProt P47895). The experiment in a line: HPLC retinaldehyde dehydrogenase assay. In kind it is biochemical.
A further assay addresses ALDH1A2 (Homo sapiens, UniProt O94788). In words: HPLC retinaldehyde dehydrogenase assay. The class given is biochemical.
In another assay the target is ALDH1A1 (Homo sapiens, UniProt P00352). In words: HPLC retinaldehyde dehydrogenase assay. The class given is biochemical.
The subject of another assay is BT474. In words: cells. Particulars: Homo sapiens, BT-474, 48 h.
The next assay has as its system HCC1419. The experiment in a line: cells. The settings on record: Homo sapiens, HCC1419, 48 h.
The next assay has as its system HCC1569. In words: cells. The settings on record: Homo sapiens, HCC1569, 48 h.
The subject of another assay is HCC1954. The experiment in a line: cells. The settings on record: Homo sapiens, HCC1954, 48 h.
For a further assay, the system named is MCF7. In words: cells. The settings on record: Homo sapiens, MCF7, 48 h.
Another assay has as its system MDAMB436. In words: cells. Particulars: Homo sapiens, MDA-MB-436, 48 h.
In a further assay the test system is MAXFHER 1162. The experiment in a line: cells. The settings on record: read-out: DIMATE.
A further assay relates to MAXFHER 2690. The experiment in a line: cells. The settings on record: read-out: DIMATE.
The subject of the next assay is MAXFHER 4035. In words: cells. Particulars: read-out: DIMATE.
In a further assay the test system is MAXFHER BR64. In words: cells. The settings on record: read-out: DIMATE.
Another assay relates to MAXFTN 1384. In words: cells. Particulars: read-out: DIMATE.
The subject of a further assay is MAXFTN 2990. In words: cells. The settings on record: read-out: DIMATE.
The test system of another assay is MAXFTN 401. In words: cells. Particulars: read-out: DIMATE.
A further assay has as its system MAXFTN 449. The experiment in a line: cells. Particulars: read-out: DIMATE.
In the next assay the test system is MAXFTN 508. The experiment in a line: cells. The settings on record: read-out: DIMATE.
In another assay the test system is MAXFTN BR120. In words: cells. Particulars: read-out: DIMATE.
A further assay has as its target ALDH3A1 (Homo sapiens, UniProt P30838). In words: fluorimetric NADPH assay, global inhibition fit. In kind it is biochemical. The settings on record: non-competitive; 4-nitrobenzaldehyde substrate, 1 mM NADP+, 37 °C, pH 7.2.
In the next assay the test system is BT20. In words: cells. The settings on record: Homo sapiens, BT-20, 48 h, read-out: III / CEY1410.
A further assay deals with DU4475. The experiment in a line: cells. Particulars: Homo sapiens, DU-4475, 48 h, read-out: III / CEY1410.
The subject of the next assay is HCC1143. The experiment in a line: cells. The settings on record: Homo sapiens, HCC1143, 48 h, read-out: III / CEY1410.
Another assay relates to HCC1937. The experiment in a line: cells. The settings on record: Homo sapiens, HCC1937, 48 h, read-out: III / CEY1410.
A further assay relates to HCC70. In words: cells. Particulars: Homo sapiens, HCC70, 48 h, read-out: III / CEY1410.
In another assay the test system is HS578T. The experiment in a line: cells. The settings on record: Homo sapiens, Hs-578T, 48 h, read-out: III / CEY1410.
The test system of a further assay is MDAMB231. The experiment in a line: cells. The settings on record: Homo sapiens, MDA-MB-231, 48 h, read-out: III / CEY1410.
Another assay concerns MDAMB361. The experiment in a line: cells. The settings on record: Homo sapiens, MDA-MB-361, 48 h, read-out: III / CEY1410.
In a further assay the test system is MDAMB453. The experiment in a line: cells. The settings on record: Homo sapiens, MDA-MB-453, 48 h, read-out: III / CEY1410.
Another assay deals with MDAMB468. The experiment in a line: cells. The settings on record: Homo sapiens, MDA-MB-468, 48 h, read-out: III / CEY1410.
For the next assay, the system named is SKBR3. The experiment in a line: cells. Particulars: Homo sapiens, SK-BR-3, 48 h, read-out: III / CEY1410.
The subject of a further assay is T47D. The experiment in a line: cells. Particulars: Homo sapiens, T47D, 48 h, read-out: III / CEY1410.

Like-named read-outs stand apart in the source and are kept apart here.

ALDH1A3, sequence (P47895 whole entry): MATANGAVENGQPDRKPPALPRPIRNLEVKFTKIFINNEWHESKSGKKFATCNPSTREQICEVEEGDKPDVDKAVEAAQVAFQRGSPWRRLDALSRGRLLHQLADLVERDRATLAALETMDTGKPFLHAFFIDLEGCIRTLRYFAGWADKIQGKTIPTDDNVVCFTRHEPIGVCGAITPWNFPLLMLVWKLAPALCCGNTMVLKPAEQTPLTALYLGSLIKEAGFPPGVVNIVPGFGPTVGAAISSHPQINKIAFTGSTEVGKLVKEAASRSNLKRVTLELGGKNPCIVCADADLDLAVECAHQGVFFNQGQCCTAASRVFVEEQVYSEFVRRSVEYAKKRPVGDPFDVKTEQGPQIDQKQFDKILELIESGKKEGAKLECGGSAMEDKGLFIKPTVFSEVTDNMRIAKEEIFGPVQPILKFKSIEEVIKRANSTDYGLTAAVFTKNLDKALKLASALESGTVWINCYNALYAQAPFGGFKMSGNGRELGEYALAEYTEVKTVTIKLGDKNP
ALDH1A2, sequence (O94788 whole entry): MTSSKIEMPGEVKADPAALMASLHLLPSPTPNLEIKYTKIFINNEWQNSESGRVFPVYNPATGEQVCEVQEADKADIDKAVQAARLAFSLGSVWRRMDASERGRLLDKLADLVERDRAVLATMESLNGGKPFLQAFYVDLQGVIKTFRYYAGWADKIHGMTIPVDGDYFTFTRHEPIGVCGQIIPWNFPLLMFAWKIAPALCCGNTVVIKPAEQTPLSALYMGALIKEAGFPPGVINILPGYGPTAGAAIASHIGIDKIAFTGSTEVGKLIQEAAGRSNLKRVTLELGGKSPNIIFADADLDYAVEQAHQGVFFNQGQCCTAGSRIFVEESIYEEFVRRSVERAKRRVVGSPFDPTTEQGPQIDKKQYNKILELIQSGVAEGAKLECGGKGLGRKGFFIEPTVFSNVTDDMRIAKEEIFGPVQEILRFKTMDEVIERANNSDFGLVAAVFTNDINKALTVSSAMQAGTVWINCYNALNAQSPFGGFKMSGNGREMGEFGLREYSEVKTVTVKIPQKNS
ALDH1A1, sequence (P00352 whole entry): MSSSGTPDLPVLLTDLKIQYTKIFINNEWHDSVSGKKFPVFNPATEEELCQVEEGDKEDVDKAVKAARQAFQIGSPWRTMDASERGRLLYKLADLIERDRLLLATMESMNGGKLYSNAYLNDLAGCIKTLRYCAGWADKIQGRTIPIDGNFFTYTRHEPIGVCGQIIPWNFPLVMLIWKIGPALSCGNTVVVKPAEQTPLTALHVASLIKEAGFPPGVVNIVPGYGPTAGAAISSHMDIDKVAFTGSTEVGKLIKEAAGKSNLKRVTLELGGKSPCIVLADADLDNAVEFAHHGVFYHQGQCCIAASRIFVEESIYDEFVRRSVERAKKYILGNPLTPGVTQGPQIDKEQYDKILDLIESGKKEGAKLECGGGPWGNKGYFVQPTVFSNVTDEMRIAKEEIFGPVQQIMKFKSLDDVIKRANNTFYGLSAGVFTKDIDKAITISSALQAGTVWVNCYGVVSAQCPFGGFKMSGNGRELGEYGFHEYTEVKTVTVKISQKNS
ALDH3A1, sequence (P30838 whole entry): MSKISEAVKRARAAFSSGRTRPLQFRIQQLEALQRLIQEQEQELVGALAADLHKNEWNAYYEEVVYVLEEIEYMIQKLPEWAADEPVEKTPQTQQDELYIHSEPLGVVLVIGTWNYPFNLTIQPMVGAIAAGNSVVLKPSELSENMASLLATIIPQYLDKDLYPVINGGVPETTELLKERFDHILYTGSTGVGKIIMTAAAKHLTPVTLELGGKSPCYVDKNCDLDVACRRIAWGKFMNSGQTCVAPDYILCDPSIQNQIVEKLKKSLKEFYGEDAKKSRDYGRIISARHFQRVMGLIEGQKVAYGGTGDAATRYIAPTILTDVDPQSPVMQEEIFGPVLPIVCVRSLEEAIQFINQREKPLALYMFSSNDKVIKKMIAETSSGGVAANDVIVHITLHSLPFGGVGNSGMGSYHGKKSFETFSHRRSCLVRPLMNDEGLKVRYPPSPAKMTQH

For `CSC(=O)C#CC(C)(C)N(C)C` [DIMATE, 4-dimethylamino-4-methyl-pent-2-ynthioic acid-S-methyl ester], the IC50 against ALDH1A3 was found to be 5.7 ± 0.5 µM; at ALDH1A2 it was 6.4 ± 0.9 µM; at ALDH1A1, 25 ± 2 µM. Also, the GI50 in the assay with BT474 (read-out: I / DIMATE) was 3 µM; in the assay with HCC1419 (read-out: I / DIMATE), 7.9 µM; in the assay with HCC1569 (read-out: I / DIMATE), 5 µM; in the assay on HCC1954 (read-out: I / DIMATE), over 30 µM; with MCF7 (read-out: I / DIMATE) it was 10.4 µM; in the assay on MDAMB436 (read-out: I / DIMATE), 3.9 µM. Besides, the GI50 with MAXFHER 1162 came out at 1.42 µM; in the assay on MAXFHER 2690, 2.65 µM; with MAXFHER 4035, 2.55 µM; with MAXFHER BR64, 1.05 µM; in the assay with MAXFTN 1384, 7.32 µM; in the assay with MAXFTN 2990 it was 4.29 µM. Moreover, the GI50 was 0.52 µM in the assay on MAXFTN 401, 0.46 µM in the assay on MAXFTN 449, 1.11 µM with MAXFTN 508 and 4.06 µM in the assay on MAXFTN BR120.
In turn, ABD0171 gave a Ki on ALDH3A1 of 233 ± 16 µM.
In the case of `CN(C)C(C)(C)C#CC(=O)O` [CEY1410], the GI50 in the assay with BT20, with BT474 (read-out: III / CEY1410), in the assay on DU4475, in the assay on HCC1143, in the assay on HCC1419 (read-out: III / CEY1410) and in the assay with HCC1569 (read-out: III / CEY1410) was over 30 µM in each case. The GI50 in the assay on HCC1937, in the assay on HCC1954 (read-out: III / CEY1410), with HCC70, in the assay with HS578T, in the assay with MCF7 (read-out: III / CEY1410) and in the assay with MDAMB231 was over 30 µM in each case. Besides, the GI50 with MDAMB361, with MDAMB436 (read-out: III / CEY1410), in the assay on MDAMB453, in the assay with MDAMB468, in the assay with SKBR3 and with T47D was over 30 µM each time.

For the origin of these results see doi:10.1101/2024.10.18.619128v2 (biorxiv, 2024).
